Measured values taken from patent publication US9481676B2, “Azepino[4,5-B]indoles and methods of use” (Medivation Technologies, Inc., priority 2008, dated 2016).

How the values were obtained:
[1] = molecular target: T1, human recombinant dopamine D2L receptor (Homo sapiens, UniProt P14416); assay: Dopamine D2L radioligand binding ([3H]Spiperone); conditions: compound at 1 μM; read-out: Dopamine (1 μM) D2L, percent inhibition of specific binding
T1 construct: expressed in transfected cells; host or cells: CHO cells
Procedure, shortened: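 Binding measured by filtration and counting, reported as % inhibition of specific [3H]spiperone binding (0.16 nM tracer; 10 μM haloperidol for nonspecific). Compounds tested at ≤1 μM in 1% DMSO for 120 min at 25° C against CHO-expressed human D2L in pH 7.4 Tris-HCl buffer.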

[2] = molecular target: T2, human recombinant serotonin (5-Hydroxytryptamine) 5-HT2C receptor (Homo sapiens, UniProt P28335); assay: Serotonin 5-HT2C radioligand binding ([3H]Mesulergine); conditions: compound at 1 μM; read-out: Serotonin (1 μM) 5-HT2C, percent inhibition of specific binding
T2 construct: expressed in transfected cells; host or cells: CHO-K1 cells
T2 sequence (P28335 33-458): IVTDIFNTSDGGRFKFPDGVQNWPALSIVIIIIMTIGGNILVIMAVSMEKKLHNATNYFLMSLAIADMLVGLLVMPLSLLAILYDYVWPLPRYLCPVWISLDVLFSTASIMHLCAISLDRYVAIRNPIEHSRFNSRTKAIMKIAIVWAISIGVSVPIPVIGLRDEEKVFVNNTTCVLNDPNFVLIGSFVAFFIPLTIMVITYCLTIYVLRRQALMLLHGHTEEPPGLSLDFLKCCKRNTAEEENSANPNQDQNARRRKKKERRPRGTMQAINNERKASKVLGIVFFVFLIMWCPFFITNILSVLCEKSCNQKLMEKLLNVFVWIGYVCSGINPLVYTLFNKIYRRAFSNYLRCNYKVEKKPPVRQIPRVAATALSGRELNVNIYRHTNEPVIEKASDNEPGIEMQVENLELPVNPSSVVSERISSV
Procedure, shortened: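 Membranes from CHO-K1 cells expressing human 5-HT2C, incubated with 1 nM [3H]mesulergine for 60 min at 25 °C in 50 mM Tris-HCl pH 7.4 with ascorbic acid and pargyline.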

[3] = molecular target: T3, human recombinant adrenergic α2A receptor (Homo sapiens, UniProt P08913); assay: Adrenergic alpha2A radioligand binding ([3H]MK-912); conditions: compound at 1 μM; read-out: Adrenergic (1 μM) α2A, percent inhibition of specific binding
T3 construct: expressed in transfected cells; host or cells: insect Sf9 cells
T3 sequence (P08913 1-465): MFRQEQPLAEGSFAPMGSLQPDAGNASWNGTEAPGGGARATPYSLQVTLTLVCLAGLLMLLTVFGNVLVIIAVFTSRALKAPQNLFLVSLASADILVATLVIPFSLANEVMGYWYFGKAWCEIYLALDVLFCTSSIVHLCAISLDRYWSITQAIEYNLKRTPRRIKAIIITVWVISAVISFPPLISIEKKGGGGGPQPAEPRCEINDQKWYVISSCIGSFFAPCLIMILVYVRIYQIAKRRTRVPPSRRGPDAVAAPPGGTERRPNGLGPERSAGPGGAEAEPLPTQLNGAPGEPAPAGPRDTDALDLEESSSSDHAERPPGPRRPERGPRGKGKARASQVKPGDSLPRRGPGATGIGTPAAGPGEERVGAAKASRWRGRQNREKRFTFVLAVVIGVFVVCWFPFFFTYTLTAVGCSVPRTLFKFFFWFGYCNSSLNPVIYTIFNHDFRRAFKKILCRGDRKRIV
Experimental: To evaluate in radioligand binding assays the activity of compounds of the invention, human recombinant adrenergic α2A receptor expressed in insect Sf9 cells (Uhlen S et al. J Pharmacol Exp Ther. 271:1558, 1994) in a modified Tris-HCl buffer (50 mM Tris-HCl, pH 7.4, 12.5 mM MgCl2, 2 mM EDTA) was used. Compounds of invention were incubated with 1 nM [^3H]MK-912 for 60 min. at 25° C. MK912 is (2S-trans)-1,3,4,5′,6,6′,7,12b-octahydro-1′,3′-dimethyl-spiro[2 h-benzofuro [2,3-a]quinolizine-2,4′ (1′H)-pyrimidin]-2′ (3′H)-one hydrochloride Non-specific binding was estimated in the presence of 10 μM WB-4101 (2-(2,6-Dimethoxyphenoxyethyl)aminomethyl-1,4-benzodioxane hydrochloride). Receptor proteins were filtered and washed, the filters were then counted to determine [^3H]MK-912 specifically bound. Compounds were screened at 1 μM or lower, using 1% DMSO as vehicle. Biochemical assay results are presented as the percent inhibition of specific binding in Table 5.

[4] = molecular target: T4, human recombinant histamine H1 receptor (Homo sapiens, UniProt P35367); assay: Histamine H1 radioligand binding ([3H]Pyrilamine); conditions: compound at 1 μM; read-out: Histamine Binding (1 μM) H1, percent inhibition of specific binding
T4 construct: expressed in transfected cells; host or cells: CHO cells
Procedure, shortened: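 Membranes from CHO cells expressing the receptor were incubated with compound and 1.2 nM [3H]pyrilamine for 180 min at 25 °C in 50 mM Tris-HCl pH 7.4 with MgCl2, NaCl and sucrose; 1 μM pyrilamine defined non-specific binding. Filter-bound radioactivity was counted.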

T4 sequence (P35367 whole entry): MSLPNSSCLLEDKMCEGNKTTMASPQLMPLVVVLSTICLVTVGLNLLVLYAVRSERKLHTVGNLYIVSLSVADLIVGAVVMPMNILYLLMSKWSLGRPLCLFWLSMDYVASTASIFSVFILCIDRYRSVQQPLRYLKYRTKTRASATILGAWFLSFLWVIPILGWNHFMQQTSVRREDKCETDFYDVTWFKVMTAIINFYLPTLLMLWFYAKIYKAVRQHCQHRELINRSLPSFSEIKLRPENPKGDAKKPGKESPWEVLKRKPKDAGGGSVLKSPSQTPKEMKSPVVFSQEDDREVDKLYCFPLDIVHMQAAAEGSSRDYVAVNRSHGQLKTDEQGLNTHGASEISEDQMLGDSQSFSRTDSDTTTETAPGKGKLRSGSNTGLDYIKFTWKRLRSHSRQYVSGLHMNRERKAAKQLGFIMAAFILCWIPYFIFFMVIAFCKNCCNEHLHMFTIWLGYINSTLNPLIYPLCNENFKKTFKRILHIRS
T1 sequence (P14416 whole entry): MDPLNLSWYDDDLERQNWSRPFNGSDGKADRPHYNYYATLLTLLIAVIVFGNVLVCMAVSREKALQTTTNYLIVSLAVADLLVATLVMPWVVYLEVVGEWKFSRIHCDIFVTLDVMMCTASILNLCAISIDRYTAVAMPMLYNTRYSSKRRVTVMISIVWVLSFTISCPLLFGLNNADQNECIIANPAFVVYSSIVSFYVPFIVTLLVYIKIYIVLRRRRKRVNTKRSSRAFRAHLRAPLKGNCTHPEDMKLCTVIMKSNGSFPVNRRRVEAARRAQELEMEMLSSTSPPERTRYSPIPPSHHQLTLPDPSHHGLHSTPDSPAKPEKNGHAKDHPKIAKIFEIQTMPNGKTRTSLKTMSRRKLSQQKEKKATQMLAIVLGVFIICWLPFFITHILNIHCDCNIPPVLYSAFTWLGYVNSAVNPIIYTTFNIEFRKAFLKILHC

| Compound | inhibition at 1 µM [1] | inhibition at 1 µM [2] | inhibition at 1 µM [3] | inhibition at 1 µM [4] |
| --- | --- | --- | --- | --- |
| Cc1ccc2c(c1)c1c(n2CCc2cncc(Cl)c2)CCN(C)CC1 [Compound No. 4, 6-(2-(5-chloropyridin-3-yl)ethyl)-1,2,3,4,5,6-hexahydro-3,9-dimethylazepino[4,5-b]indole] | 2% | 89% | 85% | 100% |
| CN1CCc2c(n(CCc3ccncc3)c3ccc(Cl)cc23)CC1 [Compound No. 5, 9-chloro-1,2,3,4,5,6-hexahydro-3-methyl-6-(2-(pyridin-4-yl)ethyl)azepino[4,5-b]indole] | 34% | 90% | 97% | 100% |
| Cc1ccc2c(c1)c1c(n2CCc2ccncc2)CCN(C)CC1 [Compound No. 6, 1,2,3,4,5,6-hexahydro-3,9-dimethyl-6-(2-(pyridin-4-yl)ethyl)azepino[4,5-b]indole] | 30% | 92% | 93% | 103% |
| Cc1ccc(C(O)Cn2c3c(c4cc(Cl)ccc42)CCN(C)CC3)cn1 (stereo not shown) [Compound No. 7, 2-(9-chloro-2,3,4,5-tetrahydro-3-methylazepino[4,5-b]indol-6(1H)-yl)-1-(6-methylpyridin-3-yl)ethanol] | 15% | 64% | 84% | 101% |
| CN1CCc2c(n(CCc3ccccn3)c3ccc(Cl)cc23)CC1 [Compound No. 8, 9-chloro-1,2,3,4,5,6-hexahydro-3-methyl-6-(2-(pyridin-2-yl)ethyl)azepino[4,5-b]indole] | 42% | 95% | 95% | 97% |
| Cc1ccc2c(c1)c1c(n2CCc2ccccn2)CCN(C)CC1 [Compound No. 9, 1,2,3,4,5,6-hexahydro-3,9-dimethyl-6-(2-(pyridin-2-yl)ethyl)azepino[4,5-b]indole] | 20% | 93% | 88% | 99% |
| CN1CCc2c(n(CCc3cncc(Cl)c3)c3ccc(Cl)cc23)CC1 [Compound No. 10, 9-chloro-6-(2-(5-chloropyridin-3-yl)ethyl)-1,2,3,4,5,6-hexahydro-3-methylazepino[4,5-b]indole] | 35% | 92% | 96% | 101% |
| Cc1ccc2c(c1)c1c(n2CCc2ccc(C(=O)O)nc2)CCN(C)CC1 [Compound No. 11, 5-(2-(2,3,4,5-tetrahydro-3,9-dimethylazepino[4,5-b]indol-6(1H)-yl)ethyl)pyridine-2-carboxylic acid] | -11% | 34% | 1% | 97% |
| CN1CCc2c(n(CC(C)(O)c3ccc(Cl)cc3)c3ccc(Cl)cc23)CC1 (stereo not shown) [Compound No. 12, 1-(9-chloro-2,3,4,5-tetrahydro-3-methylazepino[4,5-b]indol-6(1H)-yl)-2-(4-chlorophenyl)propan-2-ol] | 45% | 92% | 101% | 99% |
| CN1CCc2c(n(CC(C)(O)c3ccc(F)cc3)c3ccc(Cl)cc23)CC1 (stereo not shown) [Compound No. 13, 1-(9-chloro-2,3,4,5-tetrahydro-3-methylazepino[4,5-b]indol-6(1H)-yl)-2-(4-fluorophenyl)propan-2-ol] | 38% | 89% | 94% | 98% |
| Cc1ccc2c(c1)c1c(n2CC(C)(O)c2ccc(F)cc2)CCN(C)CC1 (stereo not shown) [Compound No. 14, 2-(4-fluorophenyl)-1-(2,3,4,5-tetrahydro-3,9-dimethylazepino[4,5-b]indol-6(1H)-yl)propan-2-ol] | 38% | 95% | 90% | 98% |
| Cc1ccc2c(c1)c1c(n2CC(C)(O)c2ccc(Cl)cc2)CCN(C)CC1 (stereo not shown) [Compound No. 15, 2-(4-chlorophenyl)-1-(2,3,4,5-tetrahydro-3,9-dimethylazepino[4,5-b]indol-6(1H)-yl)propan-2-ol] | 45% | 100% | 93% | 100% |
| CN1CCc2c(n(CC(O)c3ccc(Cl)cc3)c3ccc(Cl)cc23)CC1 (stereo not shown) [Compound No. 16, 2-(9-chloro-2,3,4,5-tetrahydro-3-methylazepino[4,5-b]indol-6(1H)-yl)-1-(4-chlorophenyl)ethanol] | 37% | 92% | 105% | 103% |
| Cc1ccc2c(c1)c1c(n2CC(O)c2ccc(Cl)cc2)CCN(C)CC1 (stereo not shown) [Compound No. 17, 1-(4-chlorophenyl)-2-(2,3,4,5-tetrahydro-3,9-dimethylazepino[4,5-b]indol-6(1H)-yl)ethanol] | 34% | 93% | 105% | 101% |
| CN1CCc2c(n(CC(O)c3cccnc3)c3ccc(Cl)cc23)CC1 (stereo not shown) [Compound No. 18, 2-(9-chloro-2,3,4,5-tetrahydro-3-methylazepino[4,5-b]indol-6(1H)-yl)-1-(pyridin-3-yl)ethanol] | 3% | 64% | 92% | 98% |
| Cc1ccc2c(c1)c1c(n2CC(O)c2cccnc2)CCN(C)CC1 (stereo not shown) [Compound No. 19, 2-(2,3,4,5-tetrahydro-3,9-dimethylazepino[4,5-b]indol-6(1H)-yl)-1-(pyridin-3-yl)ethanol] | 12% | 52% | 69% | 99% |
| Cc1ccc2c(c1)c1c(n2CCc2ccc(C(F)(F)F)nc2)CCN(C)CC1 [Compound No. 20, 6-(2-(6-(trifluoromethyl)pyridin-3-yl)ethyl)-1,2,3,4,5,6-hexahydro-3,9-dimethylazepino[4,5-b]indole] | 13% | 77% | 68% | 99% |
| CN1CCc2c(n(CCc3ccc(C(=O)O)nc3)c3ccc(Cl)cc23)CC1 [Compound No. 21, 5-(2-(9-chloro-2,3,4,5-tetrahydro-3-methylazepino[4,5-b]indol-6(1H)-yl)ethyl)pyridine-2-carboxylic acid] | 6% | 29% | -7% | 96% |
| Cc1ccc2c(c1)c1c(n2CC(=O)NC2CCCCC2)CCN(C)CC1 [Compound No. 22, N-cyclohexyl-2-(2,3,4,5-tetrahydro-3,9-dimethylazepino[4,5-b]indol-6(1H)-yl)acetamide] | 0% | -4% | -14% | 12% |
